This note sets out measurements from patent US8158389B2, “Products and methods for in vivo secretion of monatin” (priority 2005, dated 2012).

In the experiment the test system is E. coli MG1655. The experiment is described as follows: Monatin excretion with 2.5 mM sodium decanoate, E. coli MG1655 strains with pUC19, marA or baeR (30, 72 h). It is filed as cell-based, Escherichia coli. The source says: The strain used for the experiment was E. coli MG1655: : aspC/proA/pProNde together with the marA gene from E. coli cloned into the pUC19 vector (GenBank/EMBL accession number L09137). The control strain was E. coli MG1655: : aspC/proA/pProNde along with the pUC19 vector. The marA gene was amplified from E. coli W3110 with PCR technology (known to one skilled in the art) using the primers E. coli MarASalIF-5′[…]3′ (SEQ ID NO. 24) and E. coli MarABamHIR-5′[…]3′ (SEQ ID NO. 25). For inoculum, the E. coli strains were grown overnight at 37° C. and 250 rpm in Luria-Bertani (“LB”) medium with 100 μg/mL ampicillin and 50 μg/mL kanamycin.
For the experimental treatments, Trp-1+glucose medium, a minimal medium that has been used for increased production of tryptophan in E. coli cells (Zeman, et al. Folia Microbiol. 35:200-204, (1990)), was prepared as follows. To 800 mL nanopure water the following reagents were added: 2 g (NH4)2SO4 and 13.6 g KH2PO4. The pH was adjusted to 7.0, the volume was increased to 948 mL, and the medium was autoclaved. Following sterilization, 0.2 g MgSO4.7H2O, 0.01 g CaCl2.2H2O, and 0.5 mg FeSO4.7H2O were added to the medium in a 1.8 mL volume followed by addition of 0.2 mL of Neidhardt's micronutrient solution. Neidhardt F. C., et al., “Culture medium for Enterobacteria,” J. Bacteriol. 119:736-746, (1974). Neidhardt's medium includes (per liter): 0.18 g (NH4)6(MO7)24.4H2O, 1.24 g H3BO3, 0.36 g CoCl2.6H2O, 0.12 g CuSO4 (anhydrous), 0.8 g MnCl2.4H2O, and 0.14 g ZnSO4.7H2O. A 50% glucose solution was prepared separately and sterile-filtered. Forty mL of glucose solution and 10 mL of 1 M 3-Morpholinopropanesulfonic acid (“MOPS”) buffer were added to the base medium (950 mL) for a 1 L final volume.
Conditions for the treatments included 250 rpm agitation throughout and 37° C. up to induction, then, 30° C. following induction. At an OD600 nm between 0.35-0.50, induction of the plasmid genes was initiated. At induction, 1.0 mM IPTG, 0.5% L-arabinose, 0.5 mM pyridoxine hydrochloride, and 0.2 mLs of Balch's vitamins were added. Additions of 10 g/L L-tryptophan, 10 g/L sodium pyruvate, 0.04 mM pyridoxal-5′-phosphate (“PLP”) and 0.2% Tween® 20 (polyoxyethylene 20-sorbitan monolaurate) were made 3.0 hours following induction. At 24 hours after inoculation, 10 g/L of sodium pyruvate was added to each flask again. Some treatments included 2.5 mM sodium decanoate addition at 3.0 hours following induction.
The strains used for the experiment were E. coli. MG1655 : : aspC/proA/pProNde in combination with either baeR or no insert in the pUC19 vector. The baeR gene was amplified from E. coli W3110 by using primers, E. coli baeRSalIF 5′[…]3′ (SEQ ID NO. 26) and E. coli baeRBamHIR 5′[…]3′ (SEQ ID NO. 27), which introduced SalI and BamHI sites at the end of the amplified fragment. The PCR fragment was cloned between the SalI and BamHI sites of the vector pUC19 (GenBank/EMBL accession number L09137). For inoculum, the E. coli strains were grown overnight at 37° C. and 250 rpm in Luria-Bertani (“LB”) medium with 100 μg/mL ampicillin and 50 μg/mL kanamycin.
For the experimental treatments, Trp-1+glucose medium, a minimal medium that has been used for increased production of tryptophan in E. coli cells (Zeman et al. Folia Microbiol. 35:200-204, (1990)), was prepared as follows. To 800 mL nanopure water the following reagents were added: 2 g (NE4)2SO4 and 13.6 g KH2PO4. The pH was adjusted to 7.0, the volume was increased to 948 mL, and the medium was autoclaved. Following sterilization, 0.2 g MgSO4.7H2O, 0.01 g CaCl2.2H2O, and 0.5 mg FeSO4.7H2O were a to the medium in a 1.8 mL volume followed by addition of 0.2 mL of Neidhardt's micronutrient solution. Neidhardt F. C., et al., “Culture medium for Enterobacteria,” J. Bacteriol. 119:736-746 (1974). Neidhardt's medium includes (per liter): 0.18 g (NH4)6(MO7)24.4H2l O, 1.24 g H3BO3, 0.36 g CoCl2.6H2O, 0.12 g CuSO4 (anhydrous), 0.8 g MnCl2.4H2O, and 0.14 g ZnSO4.7H2O. […]

[1] abbreviates: E. coli MG1655 AspC ProA pProNde del BaeR pUC19, n = 2.
Where [2] appears, read: E. coli MG1655 AspC ProA pProNde del MarA pUC19, n = 2.
The mark [3] stands for this setting: E. coli MG1655 aspC proA pProNde del pUC19 (control), n = 2.

In the case of `CCCCCCCCCC(=O)[O-].[Na+]` [sodium decanoate], the “Mean monatin per dry cell weight, 30 hours” value by setting is: under setting [1], 16.2 mg/g; under setting [2], 8.5 mg/g; under setting [3], 2.4 mg/g. Further, the “Mean monatin per dry cell weight, 72 hours” value is, setting by setting: under setting [1], 66.8 mg/g; under setting [2], 51.9 mg/g; under setting [3], 2.7 mg/g.
